According to patent US11820973B2, “Methods and system for interfering with viability of bacteria and related compounds and compositions” (CALIFORNIA INSTITUTE OF TECHNOLOGY, priority 2011, dated 2023):
“Also recorded” adds a separate entry of the source.

Experiments:
[1] = tested on: P. aeruginosa PA14 mature biofilms; assay: MBEC assay, dissolution of mature biofilms; type: cell-based, Pseudomonas aeruginosa; settings: 100 or 200 μM Ferrozine®; 24 h exposure
Experimental: (§1) In some examples, biofilm prevention and dissolution were measured via a high-throughput biofilm assay (MBEC Physiology and Genetics Assay) consisting of a 96-well plate into which a 96-peg plastic lid fits. This lid also fits over a standard 96-well plate, which was subsequently used to test the efficacy of iron chelators. Inoculum was prepared by diluting (30-fold) a 1.0 McFarland suspension of P. aeruginosa PA14 in TSB. 150 μl, was dispensed into each of the 60 inner wells, while 200 μl, of sterile trypticase soy broth (TSB) was placed in each perimeter well. For dissolution experiments, plates were incubated at 37° C. for 24 h, and were transferred to an anaerobic chamber for 24 h at 37° C. in anaerobic TSB containing 50 mM KNO3. Biofilms were then exposed to conalbumin and/or Ferrozine® for 24 h. Each treatment was complemented with the addition of 80 μM ferrous ammonium sulfate. After treatment, lids were rinsed once in 50 mM HEPES, air dried for 10 min and quantified by crystal violet staining. For biofilm prevention, anaerobic inoculum was amended with conalbumin and/or Ferrozine®. Media was replaced every 24 h by transferring the MBEC lid to a sterile plate containing growth media+/− treatments, and biofilms were allowed to develop for 168 h. Biomass was quantified as described above. Biological triplicates and six technical replicates (n=18) were used for each treatment.

[2] = tested on: P. aeruginosa PA14 biofilm; assay: MBEC assay, anaerobic biofilm prevention; type: cell-based, Pseudomonas aeruginosa
Experimental: as §1

P. aeruginosa = assay: Planktonic growth rates with iron chelators; type: cell-based, Pseudomonas aeruginosa
[3] = tested on: P. aeruginosa PA14 Δphz mutant; assay: Intracellular NADH/NAD^+ ratio in stationary phase cultures; type: cell-based, Pseudomonas aeruginosa; settings: for Effect on intracellular NADH/NAD^+ ratios: stationary phase, 30 mM nitrate, pyocyanin in the micromolar range
Experimental: (A) Growth and pyocyanin production for wild type P. aeruginosa PA14 grown aerobically in 10 ml LB in 18×150 mM tubes. (B) NADH/NAD^+ ratios for cultures grown under the same conditions as those described in part (A). At 7 hours, pyocyanin production in the wild type cultures was visible by eye. 45 μM (half the expected final concentration) was added to the Δphz cultures to be tested for complementation, and 15 mM KNO3 was added to cultures to be tested for the effect of an additional electron acceptor. At 9 hours, pyocyanin in the wild type cultures had increased to near-maximum concentrations, so a second dose of pyocyanin or KNO3 was added to the appropriate cultures, for final concentrations of 90 μM and 30 mM, respectively. Water was added to negative controls. Eleven hours after inoculation, and 2 hours after the addition of the final dose of pyocyanin, NAD(H) was extracted and assayed for each culture. (C), NADH/NAD^+ ratios for cultures treated as in part (B), but with varying concentrations of pyocyanin added. (D) NADH and NAD^+ concentrations for cultures described in (B), normalized to OD (500 nm). Error bars represent the standard deviations of triplicate samples. OD, optical density. wt, wild type.
Two×1 ml of culture were sampled into two separate microcentrifuge tubes and centrifuged at 16,000×g for 1 min. Supernatant was removed and pellets were resuspended in 300 μl of 0.2 M NaOH (for NADH extraction) or 0.2 M HCl (for NAD^+ extraction). […] Supernatants were transferred to fresh tubes and stored at −80° C. until quantification.
A master reagent mix was prepared with 1× Bicine buffer (2.0 M, pH 8.0), 8× water, 1×80 mM EDTA, 2×100% EtOH, 2×4.2 mM thiazolyl blue (MTT), and 4×16.6 mM phenazine ethosulfate. […] The microtiter plate was incubated at 30° C., mixed by brief shaking, and read every 30-60 seconds for absorbance at 570 nm, which is the spectral peak of MTT that increases upon reduction. Slopes arising from plots of absorbance at 570 nm over time were generated for NADH and NAD^+ standards as well as all samples. […]

[4] = tested on: P. aeruginosa PA14 phenazine null strain (Δphz); assay: Flow cell biofilm development, phenazine null strain, 1% TSB; settings: 10 μM PCA in the medium flow of the Δphz mutant; by day 6
[5] = tested on: P. aeruginosa PA14 Δphz1/2; assay: Swarming motility, Δphz1/2; type: cell-based, Pseudomonas aeruginosa; settings: 100 μM in the swarming agar
Experimental: (§2) FIG. 6. Δphz1/2 has increased swarming motility. Quantification of swarming motility. Images of three swarming plates for each strain or condition were captured, exported to Adobe Photoshop and the agar surface covered by the swarms was quantified using the Analysis Tools.
(§3) Swimming, swarming and twitching motilities were determined as previously described.

[6] = tested on: P. aeruginosa PA14 wild type; assay: Swarming motility, wild type; type: cell-based, Pseudomonas aeruginosa; settings: 100 μM in the swarming agar
Experimental: as §2, §3

[7] = tested on: P. aeruginosa PA14 Δphz1/2 colonies; assay: Colony biofilm morphology and surface coverage, Δphz1/2; type: cell-based, Pseudomonas aeruginosa; settings: for Effect on rugosity and surface coverage of colonies: 0.2 M of either compound added to the agar
[8] = tested on: P. aeruginosa PA14 wild type; assay: Flow cell biofilm development, wild type, 1% TSB with or without conalbumin; settings: wild type; for Rescue of the conalbumin-induced biofilm defect: 10 μM phenazine added to conalbumin-treated 1% TSB, 6 days
[9] = tested on: P. aeruginosa PA14 wild-type colonies; assay: Colony biofilm morphology, wild type; type: cell-based, Pseudomonas aeruginosa; settings: 0.2 M of either compound added to the agar
Experimental: FIG. 8. […] Each day colonies from three independent experiments were scanned and their surface coverage was determined. Representative images of colonies at day 2, 4 and 6 are shown (A; scale bar is 1 cm). The data in (B) show the average surface coverage and standard deviation for the three independent experiments. (C) Phenazine titrations. […] Surface coverage of colonies from three independent experiments was determined after incubation at 20° C. for 7 days. Bars indicate the standard deviation.
Colony biofilms were grown on agar containing 1% tryptone as previously described. Three colonies from independent spottings were documented for 8 days using an Epson scanner.

[10] = tested on: P. aeruginosa PA14 siderophore null strain (ΔpvdAΔpchE); assay: Flow cell biofilm development, siderophore null strain, 1% TSB; settings: 10 μM PYO
[11] = tested on: Pseudomonas aeruginosa genes/operons; assay: DNA microarrays and quantitative RT-PCR; type: cell-based; settings: P. aeruginosa PA14
From the text: Strikingly, mexGHI-opmD and PA2274 were previously shown to be regulated by the PA14 quorum sensing network that controls the production of virulence factors (including phenazines). Through mutational analysis, it is shown that pyocyanin is the physiological signal for the upregulation of these quorum sensing controlled genes during stationary phase and that the response is mediated by the transcription factor SoxR. Our results implicate phenazines as signaling molecules in both P. aeruginosa PA14 and PAO1. Examples are shown in the paper: Dietrich et al. 2006, The phenazine pyocyanin is a terminal signaling factor in the quorum sensing network of Pseudomonas aeruginosa, Molecular Microbiology Vol. 61, No. 5, page 1308-1321, incorporated herein by reference in its entirety.

[12] = tested on: P. aeruginosa PA14 Δphz1/2; assay: Flow cell biofilms in 10% LB, COMSTAT analysis; type: cell-based, Pseudomonas aeruginosa
Experimental: Flow cell biofilms were grown under constant flow at 22° C. in 1.5×4×34 mm flow cells. Continuous flow of 10% LB was supplied with a peristaltic pump at a constant rate of […]. An early stationary-phase culture was diluted to an optical density at 500 nm of around 0.1 and 300 μl were inoculated into the flow cell. Strains expressing eyfp constitutively were used to visualize the biofilms. Upon inoculation, cells were allowed to attach in the absence of flow for 1.5 h before flow was resumed. Developing biofilms were imaged in 3 dimensions using a Leica confocal microscope. eYFP was excited with a 488 nm laser beam kept at constant intensity throughout the experiment, and emission from 510 to 618 nm was collected. Routinely, the Applicant observed that the distribution of bacterial cells throughout the colonized surface varied depending on the region of the flow cell, probably due to factors such as flow or accumulation of planktonic cells. To assure reproducibility, all images were acquired from an area set in the middle of the flow cell. Three images of duplicate flow cell lines were recorded and at least two independent experiments were performed.
To measure the impact of phenazines on biofilm formation directly, a flow cell system was first used to grow wild-type and Δphz1/2 biofilms. In this system, the wild type formed heterogeneous biofilms that after 4 days developed large and abundant microcolonies (FIG. 7A). Biofilms of Δphz1/2 were flatter and consisted of fewer and smaller aggregates scattered throughout the field of view (FIG. 7B). The morphology of 4-day-old biofilms was analyzed using COMSTAT. A fixed threshold value and connected volume filtration were used for all image stacks. Table 6 summarizes the values calculated for mean biofilm thickness, substratum coverage, number of microcolonies at the substratum, surface-to-volume ratio and maximum biofilm thickness for three independent experiments. […] PCA was not tested under these conditions. The mean thickness, the number of microcolonies and the total biomass volume all increased, reaching numbers similar or even higher than those observed for the wild type (Table 6).

[13] = tested on: P. aeruginosa PA14 Δphz mutant; assay: Pyruvate excretion, HPLC of culture filtrates; type: cell-based, Pseudomonas aeruginosa; settings: 50 μM pyocyanin added to the Δphz mutant upon entry into stationary phase
Experimental: FIG. 13. Wild type P. aeruginosa PA14 excretes pyruvate in stationary phase, and addition of pyocyanin to Δphz mutant cultures restores the pyruvate excretion phenotype. Cultures were inoculated into MOPS synthetic medium amended with 50 mM glucose (initial OD (500 nm)=0.03). To complement pyruvate excretion, 50 μM pyocyanin was added to the Δphz culture at the time when pyocyanin reached its maximum concentration in the wild type cultures (approximately 12 hours after inoculation). 20 μl of culture filtrates at the 24-hour time point were loaded onto an anion exchange column and subjected to an isocratic gradient in 5 mM H2SO4. Pyruvate peaks (1305, 1310) are indicated by arrows. The elution time of pyruvate drifts slightly but averages around 10.5 minutes. Results shown are representative of three separate experiments. Other peak identities are described in the text.
Two hundred μl were sampled from MOPS-glucose cultures (10 ml in an 18×150 mm test tube) at regular intervals and filtered (0.2 μm pore). In cases where repeated sampling from the same culture would alter the total culture volume by more than 10%, multiple identical cultures were inoculated from the same pre-culture and sampled sequentially. […] Compounds were detected by UV absorbance at 210 nm. Absolute concentrations of pyruvate were calculated using a standard curve for pyruvate diluted in MOPS buffer. […]

[14] = 4 day-old biofilms, Δphz1/2, 25 μM pyocyanin

O.O=S(=O)([O-])c1ccc(-c2nc(-c3ccccn3)nnc2-c2ccc(S(=O)(=O)O)cc2)cc1.[Na+] [Ferrozine®, 3-(2-Pyridyl)-5,6-diphenyl-1,2,4-triazine-p,p′-disulfonic acid monosodium salt hydrate]
Dissolution of mature biofilm [1]: ~20%
Reduction of biofilm accumulation ([2]; 100 μM Ferrozine®, ˜10 μM Fe(II) and 10 μM Fe(III) present): 24%
Reduction of biofilm accumulation ([2]; 200 μM Ferrozine®): reduced it slightly further
Effect on planktonic growth rates (P. aeruginosa): Neither compound affected planktonic growth rates

O=[N+]([O-])[O-].[K+] [Nitrate, KNO3]
Effect on intracellular NADH/NAD^+ ratios [3]: effected decreases in intracellular NADH/NAD^+ ratios

O=C(O)c1cccc2nc3ccccc3nc12 [PCA, Phenazine-1-carboxylic acid]
Increase of biofilm biomass [4]: four times
Effect on swarming motility [5]: significantly decreased the motility of the Δphz1/2 mutant
Effect on swarming motility [6]: had no effect on the wild type
Effect on surface coverage of colonies ([7]; 0.1M PCA, titration): sufficient to decrease surface coverage of Δphz1/2 colonies to wild-type levels
Effect on rugosity and surface coverage of colonies [7]: significantly decreased rugosity and surface coverage of Δphz1/2 colonies
Effect on surface coverage of colonies ([7]; higher concentrations of PCA (up to 0.4M)): had no additional effects
Rescue of the conalbumin-induced biofilm defect [8]: rescued the defect
Increase of biofilm biomass compared to biofilms treated with conalbumin alone ([8]; PCA added to conalbumin-treated medium, day 6): 13 factor
Wild type biofilm development with PCA added to the control medium ([8]; no conalbumin): developed similarly with respect to structure and biomass regardless of whether PCA was added
Effect on the structure of colonies [9]: did not noticeably affect the structure of wild-type colonies

Cn1c2cccc(=O)c-2nc2ccccc21 [PYO, Pyocyanin]
Rescue without Fe(OH)3(s) relative to rescue with Fe(OH)3(s) addition [10]: 2 times
Effect on swarming motility [5]: had no inhibitory effect on swarming of either the wild type or Δphz1/2
Effect on swarming motility [6]: had no inhibitory effect on swarming of either the wild type or Δphz1/2
Effect on gene expression [11]: elicits the upregulation of genes/operons that function in transport; also recorded: downregulates genes involved in ferric iron acquisition
Effect on Δphz1/2 flow cell biofilms ([12]; 25 μM pyocyanin): larger microcolonies and thicker biofilms resulted
% Coverage at substratum [12, 14]: 15.2 ± 2.46%
Average colony volume [12, 14]: 8170 μm^3
Average size of colonies at substratum [12, 14]: 102.6 ± 31 μm^2
Average thickness [12, 14]: 5.6 ± 1.6
Maximum thickness [12, 14]: 57.5 ± 1.9
Roughness coefficient [12, 14]: 1.3
Surface to volume ratio [12, 14]: 6.6 ± 0.6 μm^2/μm^3
Total biomass ([12]; 4 day-old biofilms, Δphz1/2, 25 μM pyocyanin in the medium from the beginning): 4.3 ± 1 μm^3/μm^2
Number of microcolonies ([12]; 4 day-old biofilms, Δphz1/2, 25 μM pyocyanin, minimum microcolony size at the substratum 10 μm^2): 8 ± 1.5
Pyruvate excretion phenotype [13]: complemented the pyruvate excretion phenotype
Increased surface coverage compared to wild-type colonies ([7]; 0.1 M pyocyanin): 50%
Effect on rugosity and surface coverage of colonies [7]: significantly decreased rugosity and surface coverage of Δphz1/2 colonies
Agar surface covered more than wild-type colonies ([7]; pyocyanin 0.2M or higher): 35%
Effect on NADH/NAD^+ ratio ([3]; 90 μM oxidized pyocyanin added to Δphz mutant cultures): reduced the NADH/NAD^+ ratio to the wild type level
Effect on intracellular NADH/NAD^+ ratios [3]: effected decreases in intracellular NADH/NAD^+ ratios
Rescue of the conalbumin-induced biofilm defect [8]: did not rescue the conalbumin-induced biofilm defect
Effect on the structure of colonies [9]: did not noticeably affect the structure of wild-type colonies
